Tests used:
TEM-1 = TEM-1 (Escherichia coli, UniProt P62593); conditions: read-out: IC50 β-lactamase TEM-1; class (A); nitrocefin 200 μM, 30-min pre-incubation, enzyme 0.1 nM
AmpC (P99) = AmpC (P99) (Enterobacter cloacae, UniProt P05364); conditions: read-out: IC50 β-lactamase AmpC (P99); class (C); nitrocefin 200 μM, 30-min pre-incubation, enzyme 0.2 nM
K. pneumoniae BAA-1898 [1] = experiment: MIC of ceftazidime (CAZ) at fixed concentration of compound (synergy), broth microdilution; format: cell-based; conditions: strain BAA-1898; MIC of CAZ, compound fixed at 4 μg/mL
Outline: (§1)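 Step one, log-phase suspension set to 5×10^5 cfu/mL final in CA-MHB. Step two, incubation at 35° C under ambient air for 16-20 h. Step three, visual reading of the lowest growth-free concentration as MIC.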

E. cloacae P99 [2] = experiment: as above; format: cell-based; conditions: strain P99; MIC of CAZ, compound fixed at 4 μg/mL
Outline: as §1

P. aeruginosa CIP107051 [3] = experiment: as above; format: cell-based; conditions: strain CIP107051; MIC of CAZ, compound fixed at 4 μg/mL
Outline: as §1

E. coli 190317 [4] = experiment: as above; format: cell-based; conditions: strain 190317; MIC of CAZ, compound fixed at 4 μg/mL
Outline: as §1

K. pneumoniae 6299 [5] = experiment: as above; format: cell-based; conditions: strain 6299; MIC of CAZ, compound fixed at 4 μg/mL
Outline: as §1

OXA-48 = OXA-48 (Klebsiella pneumoniae, UniProt Q6XEC0); conditions: read-out: IC50 β-lactamase OXA-48; class (D); nitrocefin 200 μM, 30-min pre-incubation, enzyme 0.3 nM
OXA-11 = OXA-11 (Pseudomonas aeruginosa, UniProt Q06778); conditions: read-out: IC50 β-lactamase OXA-11; class (D); nitrocefin 200 μM, 30-min pre-incubation, enzyme 1.2 nM
OXA-1 = OXA-1 (Escherichia coli, UniProt P13661); conditions: read-out: IC50 β-lactamase OXA-1; class (D); nitrocefin 200 μM, 30-min pre-incubation, enzyme 0.2 nM
CMY-37 = CMY-37 (Citrobacter freundii, UniProt P05193); conditions: read-out: IC50 β-lactamase CMY-37; class (C); nitrocefin 200 μM, 30-min pre-incubation, enzyme 0.2 nM
AmpC (PAE) = AmpC (PAE) (Pseudomonas aeruginosa, UniProt P24735); conditions: read-out: IC50 β-lactamase AmpC (PAE); class (C); nitrocefin 200 μM, 30-min pre-incubation, enzyme 0.4 nM
OXA-15 = OXA-15 (Pseudomonas aeruginosa, UniProt Q51574); conditions: read-out: IC50 β-lactamase OXA-15; class (D); nitrocefin 200 μM, 30-min pre-incubation, enzyme 0.4 nM
SHV-1 = SHV-1 (Klebsiella pneumoniae, UniProt P0AD64); conditions: read-out: IC50 β-lactamase SHV-1; class (A); nitrocefin 200 μM, 30-min pre-incubation, enzyme 0.075 nM
CTX-M-15 = CTX-M-15 (Escherichia coli, UniProt Q9EXV5); conditions: read-out: IC50 β-lactamase CTX-M-15; class (A); nitrocefin 200 μM, 30-min pre-incubation, enzyme 0.4 nM
K. pneumoniae BAA-1898 [6] = experiment: MIC of compound alone, broth microdilution; format: cell-based; conditions: strain BAA-1898; compound alone
Outline: as §1

E. cloacae P99 [7] = experiment: MIC of compound alone, broth microdilution; format: cell-based; conditions: strain P99; compound alone
Outline: as §1

P. aeruginosa CIP107051 [8] = experiment: MIC of compound alone, broth microdilution; format: cell-based; conditions: strain CIP107051; compound alone
Outline: as §1

E. coli 190317 [9] = experiment: MIC of compound alone, broth microdilution; format: cell-based; conditions: strain 190317; compound alone
Outline: as §1

K. pneumoniae 6299 [10] = experiment: MIC of compound alone, broth microdilution; format: cell-based; conditions: strain 6299; compound alone
Outline: as §1

KPC-2 = KPC-2 (Klebsiella pneumoniae, UniProt Q9F663); conditions: read-out: IC50 β-lactamase KPC-2; class (A); nitrocefin 200 μM, 30-min pre-incubation, enzyme 1 nM

| Structure (SMILES) | IC50 (TEM-1) [nM] | IC50 (AmpC (P99)) [nM] | MIC combination of CAZ and compounds of the invention at 4 μg/mL (K. pneumoniae BAA-1898 [1]) [µg/mL] | MIC combination of CAZ and compounds of the invention at 4 μg/mL (E. cloacae P99 [2]) [µg/mL] | MIC combination of CAZ and compounds of the invention at 4 μg/mL (P. aeruginosa CIP107051 [3]) [µg/mL] | MIC combination of CAZ and compounds of the invention at 4 μg/mL (E. coli 190317 [4]) [µg/mL] | MIC combination of CAZ and compounds of the invention at 4 μg/mL (K. pneumoniae 6299 [5]) [µg/mL] | IC50 (OXA-48) [nM] | IC50 (OXA-11) [nM] | IC50 (OXA-1) [nM] | IC50 (CMY-37) [nM] | IC50 (AmpC (PAE)) [nM] | IC50 (OXA-15) [nM] | IC50 (SHV-1) [nM] | IC50 (CTX-M-15) [nM] | MIC compounds of the invention alone (K. pneumoniae BAA-1898 [6]) [µg/mL] | MIC compounds of the invention alone (E. cloacae P99 [7]) [µg/mL] | MIC compounds of the invention alone (P. aeruginosa CIP107051 [8]) [µg/mL] | MIC compounds of the invention alone (E. coli 190317 [9]) [µg/mL] | MIC compounds of the invention alone (K. pneumoniae 6299 [10]) [µg/mL] | further results |
| --- | --- | --- | --- | --- | --- | --- | --- | --- | --- | --- | --- | --- | --- | --- | --- | --- | --- | --- | --- | --- | --- |
| NCc1cnn(C2=CC3CN(C2)C(=O)N3OS(=O)(=O)[O-])c1.O=C(O)C(F)(F)F.[Na+] (stereo not drawn) [Example 15, sodium and 2,2,2-trifluoroacetate [3-(4-methyleneammoniumpyrazol-1-yl)-7-oxo-1,6-diazabicyclo[3.2.1]oct-3-en-6-yl]sulfate] | 0.79 | 80 | ≤0.25 | ≤0.25 | 2 | <0.25 | 0.25 | 18 | 270 | 700 | 76 | 360 | 49 | 6.5 | 1.5 | >32 | 8 | 16 | 2 | >32 | IC50 (KPC-2): 120 nM |
| CC(=O)Nc1cnn(C2=CC3CN(C2)C(=O)N3OS(=O)(=O)[O-])c1.[Na+] (stereo not drawn) [Example 21, sodium [3-(4-acetamidepyrazol-1-yl)-7-oxo-1,6-diazabicyclo[3.2.1]oct-3-en-6-yl]sulfate] | 6.1 | 230 | 64 | 16 | 4 | 0.25 | 4 | 45 | 1400 | 2100 | 99 | 320 | 290 | 24 | 3.7 | >32 | >32 | >32 | 16 | >32 | IC50 (KPC-2): 270 nM |
| NCc1ccn(C2=CC3CN(C2)C(=O)N3OS(=O)(=O)[O-])n1.O=C(O)C(F)(F)F.[Na+] (stereo not drawn) [Example 49, sodium and 2,2,2-trifluoroacetate [3-[3-(ammoniummethyl)pyrazol-1-yl]-7-oxo-1,6-diazabicyclo[3.2.1]oct-3-en-6-yl]sulfate] | 1.2 | 160 | ≤0.25 | ≤0.25 | 4 | <0.25 | ≤0.25 | 46 | 380 | 670 | 150 | 1300 | 510 | 8.5 | 2.6 | >32 | 16 | >32 | 2 | >32 | IC50 (KPC-2): 180 nM |
| NC(=O)c1cc(F)n(C2=CC3CN(C2)C(=O)N3OS(=O)(=O)[O-])n1.[Na+] (stereo not drawn) [Example 30, sodium (7-oxo-3-(3-carboxamide-5-fluoro-pyrazol-1-yl)-1,6-diazabicyclo[3.2.1]oct-3-en-6-yl) sulfate] | 0.33 | 28 | 2 | 8 | 16 | 0.25 | 1 | 36 | 29 | 350 | 99 | 370 | 170 | 2.7 | 1 | >32 | >32 | >32 | 32 | >32 | IC50 (KPC-2): 5.3 nM |
| O=C1N2CC(n3cc(N4CCOCC4)cn3)=CC(C2)N1OS(=O)(=O)[O-].[Na+] (stereo not drawn) [Example 20] | 1.3 | 230 | >128 | >128 | >128 | 128 | >128 | 68 | 7100 | 6200 | 140 | 910 | 140 | 5.1 | 3 | >32 | >32 | >32 | >32 | >32 | IC50 (KPC-2): 120 nM |
| C/C(=N/O)c1cnn(C2=CC3CN(C2)C(=O)N3OS(=O)(=O)[O-])c1.[Na+] (stereo not drawn) [Example 39, sodium [3-[4-[(Z,E)-N-hydroxy-C-methyl-carbonimidoyl]pyrazol-1-yl]-7-oxo-1,6-diazabicyclo[3.2.1]oct-3-en-6-yl]sulfate] | 0.21 | 9.5 | 128 | 16 | 8 | 1 | 16 | 1.8 | 73 | 150 | 8.1 | 82 | 8.5 | 1.3 | 0.56 | >32 | >32 | >32 | >32 | >32 | IC50 (KPC-2): 4.1 nM |

Source: US10722520B2, “Heterocyclic compounds and their use in preventing or treating bacterial infections” (MUTABILIS, priority 2016, dated 2020)
